Results reported in PubChem BioAssay (NCI).
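Briefly, cells in 96-well plates were exposed to five compound concentrations for 48 h, and endpoints were estimated by linear interpolation. TGI is the concentration that stops growth completely.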

Columns and labels:
Assay in all cases: NCI tumour cell line growth inhibition, 48 h
COLO 205 colon = tested on: COLO 205 colon
UO-31 renal = tested on: UO-31 renal
HS 578T breast = tested on: HS 578T breast
OVCAR-5 ovarian = tested on: OVCAR-5 ovarian
A549 NSCLC = tested on: A549 NSCLC
SN12C renal = tested on: SN12C renal
LOX IMVI melanoma = tested on: LOX IMVI melanoma
MALME-3M melanoma = tested on: MALME-3M melanoma
OVCAR-4 ovarian = tested on: OVCAR-4 ovarian
SW-620 colon = tested on: SW-620 colon
SK-MEL-2 melanoma = tested on: SK-MEL-2 melanoma
IGROV1 ovarian = tested on: IGROV1 ovarian
HCC-2998 colon = tested on: HCC-2998 colon
SF-295 CNS = tested on: SF-295 CNS
SNB-75 CNS = tested on: SNB-75 CNS
RPMI-8226 leukemia = tested on: RPMI-8226 leukemia
UACC-257 melanoma = tested on: UACC-257 melanoma
ACHN renal = tested on: ACHN renal
HL-60(TB) leukemia = tested on: HL-60(TB) leukemia
HOP-62 NSCLC = tested on: HOP-62 NSCLC
TK-10 renal = tested on: TK-10 renal
HOP-92 NSCLC = tested on: HOP-92 NSCLC
SF-268 CNS = tested on: SF-268 CNS
786-0 renal = tested on: 786-0 renal
CCRF-CEM leukemia = tested on: CCRF-CEM leukemia
MDA-MB-231 breast = tested on: MDA-MB-231 breast
HCT-116 colon = tested on: HCT-116 colon
SK-MEL-5 melanoma = tested on: SK-MEL-5 melanoma
KM12 colon = tested on: KM12 colon
T-47D breast = tested on: T-47D breast
U251 CNS = tested on: U251 CNS
RXF 393 renal = tested on: RXF 393 renal
SR leukemia = tested on: SR leukemia
DU-145 prostate = tested on: DU-145 prostate
CAKI-1 renal = tested on: CAKI-1 renal
SNB-19 CNS = tested on: SNB-19 CNS
BT-549 breast = tested on: BT-549 breast
HCT-15 colon = tested on: HCT-15 colon
HT29 colon = tested on: HT29 colon
MCF7 breast = tested on: MCF7 breast
NCI-H522 lung = tested on: NCI-H522 lung
PC-3 prostate = tested on: PC-3 prostate
OVCAR-3 ovarian = tested on: OVCAR-3 ovarian
SF-539 CNS = tested on: SF-539 CNS
MDA-MB-435 = tested on: MDA-MB-435
K-562 leukemia = tested on: K-562 leukemia
NCI-H23 lung = tested on: NCI-H23 lung
UACC-62 melanoma = tested on: UACC-62 melanoma
EKVX NSCLC = tested on: EKVX NSCLC
NCI-H460 lung = tested on: NCI-H460 lung
SK-MEL-28 melanoma = tested on: SK-MEL-28 melanoma
SK-OV-3 ovarian = tested on: SK-OV-3 ovarian
NCI/ADR-RES ovarian = tested on: NCI/ADR-RES ovarian

Measured: TGI

O=c1sc(Nc2ccc3ccccc3c2Cl)nc2ccccc12
> 100 µM: all assays above
